Columns and labels:
[1] = target: Rv0099 (Mycobacterium tuberculosis, UniProt P9WQ55)
[2] = target: MmaE (Mycobacterium marinum, UniProt B2HKM3); test: LC-HRMS of Py-AP after tetrazine click; assay type: biochemical; details: α-KG, Fe(II), 50 mM HEPES pH 8.0, room temperature
[3] = target: MmaA (Mycobacterium marinum, UniProt B2HKL9)
Chain of MmaA (B2HKL9 whole entry): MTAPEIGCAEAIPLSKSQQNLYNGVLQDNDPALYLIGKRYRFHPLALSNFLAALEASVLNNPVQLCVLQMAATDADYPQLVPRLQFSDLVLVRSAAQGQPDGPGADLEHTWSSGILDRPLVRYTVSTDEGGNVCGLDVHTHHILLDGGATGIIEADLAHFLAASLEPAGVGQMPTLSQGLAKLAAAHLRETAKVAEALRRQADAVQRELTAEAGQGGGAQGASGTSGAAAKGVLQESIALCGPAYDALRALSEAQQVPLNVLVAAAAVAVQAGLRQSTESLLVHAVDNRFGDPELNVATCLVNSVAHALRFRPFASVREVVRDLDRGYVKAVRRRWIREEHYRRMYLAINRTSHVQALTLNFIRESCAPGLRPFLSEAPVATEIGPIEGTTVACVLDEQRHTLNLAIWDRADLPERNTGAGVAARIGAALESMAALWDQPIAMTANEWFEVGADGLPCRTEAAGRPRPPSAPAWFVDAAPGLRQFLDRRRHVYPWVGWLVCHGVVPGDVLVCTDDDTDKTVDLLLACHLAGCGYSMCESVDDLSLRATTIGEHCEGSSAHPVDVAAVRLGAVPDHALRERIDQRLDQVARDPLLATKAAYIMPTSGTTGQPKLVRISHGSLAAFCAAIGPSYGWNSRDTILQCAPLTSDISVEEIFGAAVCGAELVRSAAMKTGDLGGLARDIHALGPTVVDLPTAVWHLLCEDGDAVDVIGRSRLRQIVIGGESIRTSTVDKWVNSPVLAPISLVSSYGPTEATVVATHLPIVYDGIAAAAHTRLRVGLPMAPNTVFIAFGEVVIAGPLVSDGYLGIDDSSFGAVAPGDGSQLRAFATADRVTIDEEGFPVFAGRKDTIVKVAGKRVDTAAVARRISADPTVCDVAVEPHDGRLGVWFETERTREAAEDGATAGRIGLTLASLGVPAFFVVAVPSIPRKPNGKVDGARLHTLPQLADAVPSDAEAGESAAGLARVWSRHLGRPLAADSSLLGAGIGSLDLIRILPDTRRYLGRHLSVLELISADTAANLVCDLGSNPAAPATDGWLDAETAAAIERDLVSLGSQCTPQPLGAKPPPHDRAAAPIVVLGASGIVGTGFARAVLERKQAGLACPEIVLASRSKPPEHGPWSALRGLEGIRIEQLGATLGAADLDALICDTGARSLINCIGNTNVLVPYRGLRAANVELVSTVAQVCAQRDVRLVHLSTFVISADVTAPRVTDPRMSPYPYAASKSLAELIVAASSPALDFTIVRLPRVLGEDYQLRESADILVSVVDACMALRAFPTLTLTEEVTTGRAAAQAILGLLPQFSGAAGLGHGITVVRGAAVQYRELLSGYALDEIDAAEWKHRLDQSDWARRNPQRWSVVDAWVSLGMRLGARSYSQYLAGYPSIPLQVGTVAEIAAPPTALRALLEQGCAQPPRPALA

Chain of Rv0099 (P9WQ55 whole entry): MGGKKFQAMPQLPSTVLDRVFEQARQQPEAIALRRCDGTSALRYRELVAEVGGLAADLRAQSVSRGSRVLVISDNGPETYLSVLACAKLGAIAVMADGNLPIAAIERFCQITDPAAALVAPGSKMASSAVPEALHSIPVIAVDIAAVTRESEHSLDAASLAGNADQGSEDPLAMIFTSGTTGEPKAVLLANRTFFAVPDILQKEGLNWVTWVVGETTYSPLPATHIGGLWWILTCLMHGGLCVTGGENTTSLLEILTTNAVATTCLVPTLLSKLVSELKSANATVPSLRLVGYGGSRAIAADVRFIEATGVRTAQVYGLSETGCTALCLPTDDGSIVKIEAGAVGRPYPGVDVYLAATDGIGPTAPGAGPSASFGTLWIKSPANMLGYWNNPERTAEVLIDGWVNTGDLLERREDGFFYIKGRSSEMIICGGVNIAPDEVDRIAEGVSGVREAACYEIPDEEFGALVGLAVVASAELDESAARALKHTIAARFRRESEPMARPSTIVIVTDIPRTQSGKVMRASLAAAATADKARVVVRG
Chain of MmaE (B2HKM3 whole entry): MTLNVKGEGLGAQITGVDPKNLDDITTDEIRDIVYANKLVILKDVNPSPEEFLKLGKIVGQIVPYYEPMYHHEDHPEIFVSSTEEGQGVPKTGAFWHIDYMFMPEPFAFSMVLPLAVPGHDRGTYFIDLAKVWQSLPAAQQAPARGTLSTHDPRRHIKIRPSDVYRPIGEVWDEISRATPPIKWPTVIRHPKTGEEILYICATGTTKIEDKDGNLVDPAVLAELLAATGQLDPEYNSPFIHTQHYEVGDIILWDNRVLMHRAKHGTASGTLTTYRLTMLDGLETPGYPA

Structure (SMILES)	LC-HRMS intact protein and Ppant ejection; loading onto holo-Rv0100 [1]	other results
CCCCCCCC=CC(=O)O [2-decenoic acid]	Rv0099-catalyzed reaction containing holo-Rv0100, 2-decenoic acid, and ATP	
CCCCCCCC(CC(=O)O)NCC(=O)O (stereo not shown) [CADA, 3-[(carboxymethyl)amino]decanoic acid]		LC-HRMS of Py-AP after tetrazine click; turnover [2]: INDA was only detected from the assay with MmaE
[C-]#[N+]C(CCCCCCC)CC(=O)O (stereo not shown) [INDA, 3-isocyanodecanoic acid]	INDA, ATP, Rv0099, and Rv0100 yielded the expected product, INDA-S-Rv0100	
NCCCC[C@H](N)C(=O)O [lysine]		LC-HRMS of INLP6; coupled assay with Rv0097/MmaE and Rv0098-0100 [3]: together with 2-decenoic acid, ATP, Gly, α-KG, Lys, and NADPH, generated INLP6
